# Data from paper PMC6669608, “Evaluation of Oxasqualenoids from the Red Alga Laurencia viridis against Acanthamoeba” (Marine Drugs, 2019).
# Where two headings read alike, the source gives them in different places.
# Legend:
# [1] = system: Acanthamoeba castellanii Neff trophozoites; test: In vitro activity against Acanthamoeba trophozoites (alamarBlue colorimetric assay); assay type: cell-based, Acanthamoeba castellanii Neff (ATCC 30010); conditions: 96 h, read-out: IC50 against Acanthamoeba castellanii Neff
# Method: (§1) The antiamoeboid activity of the compounds was evaluated against Acanthamoeba castellanii Neff (ATCC 30010) type strain from the American Type Culture Collection. This strain was axenically incubated in PYG medium (0.75% (w/v) proteose Peptone, 0.75% (w/v) Yeast extract, and 1.5% (w/v) Glucose) supplemented with 10 µg/mL gentamicin (Sigma-Aldrich, Madrid, Spain). As for the cytotoxicity assays, murine macrophages J774A.1 (ATCC TIB-67) were used, cultivated in DMEM medium (Dulbecco’s modified eagle medium, Gibco Life Technologies, California, USA) with 10% supplement of fetal bovine serum (FBS) and 10 µg/mL gentamicin at 37 °C in a 5% CO2 incubator.
# The in vitro activities of the different compounds of Laurencia were evaluated using a previously developed colorimetric assay based on the alamarBlue™ Cell Viability Reagent assay (Life Technologies, Barcelona, Spain). Briefly, 50 µL of 5 × 10⁴ trophozoites/mL were seeded onto a 96-well microtiter plate. After 15 min, the adherence of the cells to the plate bottom was confirmed by the use of the inverted microscope Leica DMIL (Leica, Wetzlar, Germany). Furthermore, 50 µL of serial dilutions of each compound was added to the 96-well microtiter plate. Finally, alamarBlue™ was placed into each well at 10% of the final volume and incubated at 26 °C with slight agitation. After 96 h, the fluorescence was measured with EnSpire Multimode Plate Reader (Perkin Elmer, Madrid, Spain) at a wavelength of 570/585 nm. The inhibitory concentration to inhibit the growth of 50% of the parasites (IC50) was calculated through nonlinear regression analysis with 95% confidence limits using the software Sigma Plot 12.0 (Systat Software Inc., London, UK). The experiments were performed three times each, allowing for standard deviation.
# [2] = Cytotoxicity assay (alamarBlue); assay type: cell-based, murine; design: CC50, toxicity against murine macrophage J774A.1 (unit not given): unit not given beside the values; conditions: mouse, 24 h, 37 °C, read-out: CC50, toxicity against murine macrophage J774.A1
# Method: as §1
# (§2) The cytotoxicity of the tested compounds was determined in vitro with murine macrophages (J774A.1). For this assay, the DMEM culture medium was changed from RPMI without phenol red (Roswell Park Memorial Institute, Thermo Fisher Scientific Inc., Waltham, MA, USA) to L-Glutamine supplemented with 10% (v/v) inactivated FBS and with 10 µg/mL gentamicin. In this assay, the macrophages were counted and seeded into a 96-well microtiter plate, adding 50 µL to each well from a stock solution of 2 × 10^5 cells/mL. Cells were then left to adhere for 15 min to the plate bottom and were checked with the inverted microscope Leica DMIL. After that, 50 µL of a serial dilution of the compounds was added to the 96-well microtiter plate. Finally, alamarBlue™ was added into each well at an amount equal to 10% of the final volume and incubated at 37 °C in the presence of CO2 at 5% for 24 h. After this period of time, as in the in vitro anti-Acanthamoeba assay, the fluorescence was determined with an EnSpire Multimode Plate Reader (PerkinElmer, Inc, Waltham, MA, USA) at a wavelength of 570/585 nm. The cytotoxicity concentration to inhibit the growth of 50% of murine macrophages (CC50) was calculated through nonlinear regression analysis with 95% confidence limits using the software Sigma Plot 12.0 (Systat Software, Inc, San Jose, CA 95110 USA). Experiments were performed three times each, allowing for standard deviation.
# [3] = system: Acanthamoeba castellanii Neff trophozoites; test: In vitro activity against Acanthamoeba trophozoites (alamarBlue colorimetric assay); assay type: cell-based, Acanthamoeba castellanii Neff (ATCC 30010); conditions: 42.5 µM (25 µg/mL)
# [4] = system: murine macrophages J774A.1; test: Cytotoxicity assay (alamarBlue); assay type: cell-based; design: CC50, toxicity against murine macrophage J774A.1 (unit not given): unit not given beside the values; conditions: for CC50, toxicity against murine macrophage J774A.1 (unit not given): mouse
# Method: as §1, §2
# [5] = system: Acanthamoeba castellanii Neff trophozoites; design: method as in PMID 30423882; conditions: previous work; read-out: IC50 against Acanthamoeba castellanii Neff; cited from earlier work
Compound,"IC50 ([1]; trophozoites, 26 °C) [µM]",CC50 [2] [µM],CC50 at 24 h ([2]; J774A.1 murine macrophages) [µM],other results
"CC(C)(O)[C@H]1CC[C@](C)([C@@H]2CC[C@@](CI)([C@H]3CC[C@H]4O[C@@H]([C@]5(C)CC[C@@H](Br)C(C)(C)O5)CC[C@]4(C)O3)O2)O1 [Compound 14, 28-iodosaiyacenol A]",50.5 ± 3.05,29.45 ± 0.2,–,–
"CC(C)(O)[C@H]1CC[C@](C)([C@@H]2CC[C@](CO)([C@H]3CC[C@H]4O[C@@H]([C@]5(C)CC[C@@H](Br)C(C)(C)O5)CC[C@]4(C)O3)O2)O1 [Compound 9, 28-hydroxysaiyacenol B]",59.9 ± 10.1,> 100,–,–
"C=C(CC[C@H](O)[C@@]1(C)CC[C@@H](O)C(C)(C)O1)[C@H]1CC[C@H]2O[C@@H]([C@]3(C)CC[C@@H](Br)C(C)(C)O3)CC[C@]2(C)O1 [Compound 3, iubol]",5.3 ± 0.87,7.72 ± 0.22,–,inhibitory effect on the growth of A. castellanii trophozoites (microscopy) [3]: many of the treated cells were dead
"CC(C)(O)[C@H]1CC[C@](C)([C@@H](O)CCC(O)(CO)[C@H]2CC[C@H]3O[C@@H]([C@]4(C)CC[C@@H](Br)C(C)(C)O4)CC[C@]3(C)O2)O1 (some centres unmarked) [Compound 16, 28-hydroxythyrsiferol]",104 ± 8.42,> 100,–,–
"[H]/N=C(\N/C(=N/[H])NCCCCCCNC(=N)NC(=N)Nc1ccc(Cl)cc1)Nc1ccc(Cl)cc1 [Chlorhexidine, chlorhexidine, reference compound]",–,–,6.64 ± 0.35,–
"C[C@@H]1[C@H](O)[C@@H](C)/C=C/C=C/C=C/C=C/C=C/C=C/C=C/[C@H](O[C@@H]2O[C@H](C)[C@@H](O)[C@H](N)[C@@H]2O)C[C@@H]2O[C@](O)(C[C@@H](O)C[C@@H](O)[C@H](O)CC[C@@H](O)C[C@@H](O)CC(=O)O[C@H]1C)C[C@H](O)[C@H]2C(=O)O [Amphotericin B, amphotericin B, reference compound]",39.6 ± 0.56,–,> 100,–
"C=C(CC[C@H](O)[C@@]1(C)CC[C@](O)(C(C)(C)O)O1)[C@H]1CC[C@H]2O[C@@H]([C@]3(C)CC[C@@H](Br)C(C)(C)O3)CC[C@]2(C)O1 [Compound 4, 22-hydroxydehydrothyrsiferol]",17 ± 4.57,> 100,–,"toxicity against murine macrophages (in words) [4]: not toxic against murine macrophages; CC50, toxicity against murine macrophage J774A.1 (unit not given) [4]: < 50"
"CC(C)(O)[C@H]1CC[C@](C)([C@@H]2CC[C@@](C)([C@H]3CC[C@H]4O[C@@H]([C@]5(C)CC[C@@H](Br)C(C)(C)O5)CC[C@]4(C)O3)O2)O1 [Compound 6, saiyacenol A]",55.4 ± 6.56,59.9 ± 8.5,–,–
"C=C(CCC(=O)[C@@]1(C)CC[C@H](C(C)(C)O)O1)[C@H]1CC[C@H]2O[C@@H]([C@]3(C)CC[C@@H](Br)C(C)(C)O3)CC[C@]2(C)O1 [Compound 13, 18-ketodehydrothyrsiferol]",29.1 ± 2.84,23.4 ± 1.76,–,–
"C=C(CC[C@H](OS(=O)(=O)O)[C@@]1(C)CC[C@H](C(C)(C)O)O1)[C@H]1CC[C@H]2O[C@@H]([C@]3(C)CC[C@@H](Br)C(C)(C)O3)CC[C@]2(C)O1 [Compound 12, 18-sulphatedehydrothyrsiferol]",43.18 ± 0.14,> 100,–,–
"C=C(C)[C@@H]1CC[C@@](C)([C@H]2CC[C@]3(C)O[C@@H](C(=C)CC[C@H](O)[C@@]4(C)CC[C@H](C(C)(C)O)O4)CC[C@H]3O2)O1 [Compound 5, 1,2-dehydropseudodehydrothyrsiferol]",105 ± 1.72,–,> 100,–
"C[C@@H](c1ncncc1F)[C@](O)(Cn1cncn1)c1ccc(F)cc1F [Voriconazole, voriconazole, reference compound]",0.94 ± 0.29,–,2.64 ± 0.27,–
"CC(C)(O)[C@H]1CC[C@](C)([C@@H](O)CC[C@](C)(O)[C@H]2CC[C@H]3O[C@@H]([C@]4(C)CC[C@@H](Br)C(C)(C)O4)CC[C@]3(C)O2)O1 [Compound 2, thyrsiferol]",–,–,–,"IC50 [1]: 14 ± 1.57 µM; toxicity against murine macrophages (in words) [4]: not toxic against murine macrophages; CC50, toxicity against murine macrophage J774A.1 (unit not given) ([4]; 24 h): < 50; CC50 at 24 h [2]: > 100 µM"
"CC(C)(O)C1CCC(C)(C2CCC(C)(C3CCC(C(C)(O)CCC4OC(C)(C)C5CCC4(C)O5)O3)O2)O1 (centres unmarked) [Compound 10, nivariol A]",102 ± 9.57,–,> 100,–
"CC(C)(O)[C@H]1CC[C@](C)([C@@H]2CC[C@](CI)([C@H]3CC[C@H]4O[C@@H]([C@]5(C)CC[C@@H](Br)C(C)(C)O5)CC[C@]4(C)O3)O2)O1 [Compound 15, 28-iodosaiyacenol B]",54.3 ± 6.56,> 100,–,–
"CC1(C)O[C@](C)([C@H]2CC[C@]3(C)OC(=O)CC[C@H]3O2)CC[C@H]1Br [Compound 11, adejene B]",48.3 ± 0.55,–,> 100,–
3α-bromojohnstane,–,–,–,IC50 [5]: 41.5 µM
"CC(C)(O)[C@H]1CC[C@](C)([C@@H]2CC[C@](C)([C@H]3CC[C@H]4O[C@@H]([C@]5(C)CC[C@@H](Br)C(C)(C)O5)CC[C@]4(C)O3)O2)O1 [Compound 7, saiyacenol B]",77.9 ± 3.3,> 100,–,–
"CC(C)(O)[C@H]1CC[C@](C)([C@@H]2CC[C@@](CO)([C@H]3CC[C@H]4O[C@@H]([C@]5(C)CC[C@@H](Br)C(C)(C)O5)CC[C@]4(C)O3)O2)O1 [Compound 8, 28-hydroxysaiyacenol A]",66.2 ± 3.81,> 100,–,–
